In patent US6280715A, “Cosmetic composition useful notably for the skin whitening and melanogenesis inhibiting agent containing such a cosmetic composition” (Exsymol S.A.M., priority 1997, dated 2001):

What was measured:
[1] = tested on: tyrosinase; assay: in vitro inhibition of melanin formation from L-DOPA by tyrosinase; format: biochemical; details: product diluted at 1.10^-3 mole.l^-1 (2 ml in mixture), pH 6.8, 4 hours at 37° C., optical density at 400 nm
Procedure: The reference used is the ascorbic acid in solution at 0.3.10^-3 mole l^-1.
2 ml of a L-DOPA solution, 1.25 ml of tyrosinase (2500 units/ml), 2 ml of product (Ia) diluted at 1.10^-3 mole.l^-1 are mixed together, and the mixture is completed with 20 ml of phosphate buffer (NaH2 PO4 0.1 mole l^-1 +Na2 HPO4 0.1 mole.l^-1, pH=6.8). The mixture is stirred for 4 hours at 37° C., then allowed to cool at room temperature for one night, shielded from light.
1 ml of concentrated hydrochloric acid is added and the mixture is centrifuged at 4000 rpm for 5 min. The pellet is washed with 10 ml of distilled water then centrifuged a second time. A reflux is made on the pellet with concentrated acid HCL 6N for 48 hours. The dried pellet is dissolved in 10 ml of toluene, exposed to ultrasounds for 2 min, put 2 hours at 37° C. then exposed to ultrasounds again for 5 min. The optical density is measured at 400 nm.

[2] = tested on: S91 melanoma cells; assay: melanin content of UV-irradiated S91 melanoma cell cultures; format: cell-based; details: Mus musculus, S91, light or radiation study
Procedure: The inhibiting activity on melanin, of the 1-amino-ethylphosphinic acid (Ia) is studied on S91 melanoma cells cultures.
The model of study was finalized by Gilchrest (1987).
The cultured cells are purchased from a Cloudman melanom.
As ordinary melanocytes, they respond to UV stimuli by an increase of melanogenesis.
The melanogenesis evaluation is made through the melanin content and the activity of enzymes involved in this metabolism: tyrosinase and dopa-tautomerase.
S91 cells are plated in P60 dishes at a density of […] per dish and maintained in Dubelcco's modified Eagle's medium and provided with 10% of calf serum. When the cells have reached about 50% of confluence, they are exposed to a UV irradiation of 10 mJ/cm^2 at 285±5 nm. During irradiation, the medium is replaced with a salin phosphate solution (PBS) to eliminate the forming of toxical derivatives. Immediately after irradiation, the PBS is replaced with fresh medium/7% of calf serum with or without the active agent. After a 16 hours incubation, the medium is replaced with ordinary medium with or without the active agent. […]
The melanin content is then determined: melanocytes are trypsinized, twice washed with PBS and dissolved in 0.8 ml of NaOH 1N, when strongly vortexed for 10-15 min and heated at 60-80° C. The melanin concentration is determined based on the absorbance at 475 nm.

| SMILES | percentage of inhibition of melanin [1] [%] | inhibition at 500 µM ([2]; read-out: decrease of melanin rate in the cells) [%] | inhibition at 3300 µM ([2]; kojic acid at 3.3.10^-3 mole.l^-1, UV irradiation 10 mJ/cm^2, absorbance at 475 nm, read-out: decrease of melanin content in the cells) [%] |
| --- | --- | --- | --- |
| CC(N)[PH](=O)O (stereo not shown) [(Ia), 1-amino-ethylphosphinic acid] | 46 | 47.2 | – |
| CC(C)CC(N)[PH](=O)O (stereo not shown) [(Ib), 1-amino-3-methylbutylphosphinic acid] | 44 | – | – |
| O=c1cc(CO)occ1O [kojic acid, reference compound] | – | – | 45.2 |
